Converted amounts (≈) assume the structure as drawn. Like-named read-outs stand apart in the source and are kept apart here.
Experiment: Solubility of Compound (V) in water and organic solvents
Type: physicochemical
Details: for solubility: read-out: Concentration in pure solvents (solubility)
Experimental: Example 1 Solubility of Compound (V) in Organic Solvents
The solubility of Compound (V) in water and in a set of organic solvents was determined.

CCOC(=O)c1cn([C@H]2COCC[C@@H]2C#N)nc1N (racemic) [Compound (V), ethyl 3-amino-1-[(3R,4S)-4-cyanotetrahydropyran-3-yl]pyrazole-4-carboxylate and ethyl 3-amino-1-[(3S,4R)-4-cyanotetrahydropyran-3-yl]pyrazole-4-carboxylate]
Solubility in words (acetonitrile): highly soluble | solubility (acetonitrile (pure solvent), organic solvent or mixture): > 200000 µg/mL | solubility (ethanol (pure solvent), organic solvent or mixture, EtOH): 10000 µg/mL (≈ 37.8 mM) | solubility (isopropanol (pure solvent), organic solvent or mixture, iPrOH): < 5000 µg/mL | solubility (methanol (pure solvent), organic solvent or mixture, MeOH): < 50000 µg/mL | solubility (water (pure solvent), water): < 5000 µg/mL

— US12281104B2, “Process for the production of ethyl 3-amino-1-[(3R,4S)-4-cyanotetrahydropyran-3-yl]pyrazole-4-carboxylate through chiral separation of a racemic mixture” (Intervet Inc., priority 2019, dated 2025)
